Laboratory results from ChEMBL document CHEMBL1128193, “4-(Heteroarylthio)-2-biphenylyltetrazoles as nonpeptide angiotensin II antagonists” (J Med Chem, 1995).

Molecular target: T1, Angiotensin II receptor (Rattus norvegicus, UniProt P29089+P25095+P35351)
T1 sequence (P29089 whole entry): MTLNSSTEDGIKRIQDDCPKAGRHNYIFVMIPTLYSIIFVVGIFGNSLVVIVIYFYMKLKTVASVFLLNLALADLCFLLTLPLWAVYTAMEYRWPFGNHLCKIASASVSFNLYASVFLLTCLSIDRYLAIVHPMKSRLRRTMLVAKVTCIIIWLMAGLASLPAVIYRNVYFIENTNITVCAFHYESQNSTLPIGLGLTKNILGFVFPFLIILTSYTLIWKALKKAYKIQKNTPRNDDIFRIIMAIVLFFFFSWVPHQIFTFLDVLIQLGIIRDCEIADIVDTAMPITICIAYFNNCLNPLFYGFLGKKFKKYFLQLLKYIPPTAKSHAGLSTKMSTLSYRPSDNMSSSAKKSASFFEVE
T1 sequence (P25095 whole entry): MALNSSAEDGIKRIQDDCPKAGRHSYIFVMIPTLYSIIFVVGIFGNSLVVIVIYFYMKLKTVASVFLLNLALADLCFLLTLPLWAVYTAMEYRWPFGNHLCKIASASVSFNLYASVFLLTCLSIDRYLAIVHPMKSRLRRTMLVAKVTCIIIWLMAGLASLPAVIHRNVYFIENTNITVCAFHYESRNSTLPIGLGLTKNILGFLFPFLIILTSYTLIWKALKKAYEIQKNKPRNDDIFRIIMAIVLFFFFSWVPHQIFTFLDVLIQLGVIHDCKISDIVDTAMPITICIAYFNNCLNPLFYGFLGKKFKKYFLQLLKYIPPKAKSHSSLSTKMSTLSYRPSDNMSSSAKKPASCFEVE
T1 sequence (P35351 whole entry): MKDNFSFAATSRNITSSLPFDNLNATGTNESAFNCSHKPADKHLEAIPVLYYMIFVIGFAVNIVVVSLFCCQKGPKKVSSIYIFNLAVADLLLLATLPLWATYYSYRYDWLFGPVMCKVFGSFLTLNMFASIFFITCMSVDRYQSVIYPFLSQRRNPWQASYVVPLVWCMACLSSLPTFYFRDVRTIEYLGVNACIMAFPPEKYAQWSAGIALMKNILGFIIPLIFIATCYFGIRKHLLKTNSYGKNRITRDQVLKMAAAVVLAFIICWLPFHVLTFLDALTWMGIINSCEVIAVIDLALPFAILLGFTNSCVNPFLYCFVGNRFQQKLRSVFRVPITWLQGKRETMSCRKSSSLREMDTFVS
Test: Displacement of [3H]-AII from the Angiotensin II receptor isolated from the liver of rats

Compound | IC50
CCc1cc(Sc2ccc(-c3ccccc3-c3nn[nH]n3)cc2)c2ncccc2n1 | 20 nM
Cc1nc(Sc2ccc(-c3ccccc3-c3nn[nH]n3)cc2)c2cc[nH]c2n1 | > 10000 nM
Cc1cc(OCc2ccc(-c3ccccc3-c3nn[nH]n3)cc2)c2ccccc2n1 | 31 nM
Cc1cc(S(=O)(=O)c2ccc(-c3ccccc3-c3nn[nH]n3)cc2)c2ccccc2[n+]1[O-] | > 10000 nM
Cc1cc(CCc2ccc(-c3ccccc3-c3nn[nH]n3)cc2)c2ccccc2n1 | 270 nM

Continued, values first:

IC50 | Compound
370 nM | Cc1cc(SCc2ccc(-c3ccccc3-c3nn[nH]n3)cc2)c2ccccc2n1
350 nM | Cc1nc(Sc2ccc(-c3ccccc3-c3nn[nH]n3)cc2)c2ccccc2n1
4700 nM | Cc1cc(Sc2ccc(-c3ccccc3-c3nnn(C(c4ccccc4)(c4ccccc4)c4ccccc4)n3)cc2)c2ccccc2n1
